Assay results published in US20260138961A1, “MODULATORS OF MITOCHONDRIAL DNA REPLICATION” (Pretzel Therapeutics, Inc., priority 2022, published 2026).

target: T1, POLγA:R309C (Homo sapiens, UniProt P54098, R309C); assay: DNA polymerization assay, POLγA:R309C mutant; format: biochemical; conditions: stimulation of polymerase activity, primed M13mp18 ssDNA, 37° C. 2 hours
T1 sequence (P54098 1-1239 R309C): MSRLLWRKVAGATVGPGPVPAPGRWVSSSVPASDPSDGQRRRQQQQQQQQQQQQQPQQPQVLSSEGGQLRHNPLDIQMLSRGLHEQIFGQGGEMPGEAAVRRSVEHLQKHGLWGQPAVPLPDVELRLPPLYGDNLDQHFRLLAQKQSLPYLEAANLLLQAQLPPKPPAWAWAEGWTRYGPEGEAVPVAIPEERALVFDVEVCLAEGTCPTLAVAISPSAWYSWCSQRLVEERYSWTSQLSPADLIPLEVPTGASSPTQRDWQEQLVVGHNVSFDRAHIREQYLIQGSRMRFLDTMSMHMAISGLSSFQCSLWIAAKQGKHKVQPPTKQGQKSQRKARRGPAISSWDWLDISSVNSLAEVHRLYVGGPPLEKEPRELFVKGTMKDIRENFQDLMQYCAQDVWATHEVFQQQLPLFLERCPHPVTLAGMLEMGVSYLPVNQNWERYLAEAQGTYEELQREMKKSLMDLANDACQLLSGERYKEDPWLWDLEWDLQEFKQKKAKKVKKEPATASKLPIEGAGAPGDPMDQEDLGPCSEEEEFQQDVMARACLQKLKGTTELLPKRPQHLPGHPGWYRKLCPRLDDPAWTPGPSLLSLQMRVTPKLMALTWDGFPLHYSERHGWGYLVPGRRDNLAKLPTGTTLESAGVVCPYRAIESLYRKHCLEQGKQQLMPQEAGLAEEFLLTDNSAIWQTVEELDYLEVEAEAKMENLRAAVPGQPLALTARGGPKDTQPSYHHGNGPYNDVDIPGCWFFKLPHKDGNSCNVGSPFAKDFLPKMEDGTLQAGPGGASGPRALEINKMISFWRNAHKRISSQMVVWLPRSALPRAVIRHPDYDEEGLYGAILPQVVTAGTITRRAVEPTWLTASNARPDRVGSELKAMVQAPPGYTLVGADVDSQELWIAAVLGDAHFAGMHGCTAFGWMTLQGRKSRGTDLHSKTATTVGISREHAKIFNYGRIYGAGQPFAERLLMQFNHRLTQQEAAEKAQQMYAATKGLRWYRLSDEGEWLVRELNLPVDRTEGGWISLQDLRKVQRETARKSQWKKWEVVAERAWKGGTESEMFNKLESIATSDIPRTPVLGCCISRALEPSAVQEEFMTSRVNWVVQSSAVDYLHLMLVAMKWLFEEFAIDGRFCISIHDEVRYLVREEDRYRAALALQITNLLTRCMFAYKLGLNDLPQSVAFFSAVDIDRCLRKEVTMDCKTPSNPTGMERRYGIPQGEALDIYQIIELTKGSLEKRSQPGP
T1 sequence (Q9UHN1 1-485 partner): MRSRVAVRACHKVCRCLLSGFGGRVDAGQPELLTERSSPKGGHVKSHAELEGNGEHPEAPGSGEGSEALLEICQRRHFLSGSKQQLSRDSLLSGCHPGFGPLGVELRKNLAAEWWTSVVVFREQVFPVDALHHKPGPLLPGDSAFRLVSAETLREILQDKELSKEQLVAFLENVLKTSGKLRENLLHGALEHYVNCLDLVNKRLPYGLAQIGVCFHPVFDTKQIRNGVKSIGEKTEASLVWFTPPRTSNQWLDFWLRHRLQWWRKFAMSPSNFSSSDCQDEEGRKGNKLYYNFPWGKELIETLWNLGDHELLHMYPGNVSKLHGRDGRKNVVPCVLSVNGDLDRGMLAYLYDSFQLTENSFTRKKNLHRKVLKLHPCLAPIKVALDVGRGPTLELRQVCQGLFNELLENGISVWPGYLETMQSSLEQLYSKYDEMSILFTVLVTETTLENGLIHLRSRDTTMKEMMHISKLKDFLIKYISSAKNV
Experimental: DNA Polymerization Assay to Monitor Effects on Human Wildtype POLγ and Four Disease-Causing Mutant Variants of Human POLγ.
The ability of small molecules to stimulate the polymerase activity of POLγ was analyzed in a quantitative fluorescence SYBR Green I assay with fluorescence intensity (FI) readout.
In the presence of dNTPs, wild type human POLγ and mutant derivatives thereof were incubated with single-stranded, circular M13mp18 ssDNA hybridized to a short DNA oligonucleotide that functions as a primer for initiation of DNA synthesis. POLγ and mutant derivatives thereof will extend the primer and use the M13mp18 molecule as a template to synthesize long stretches of double-stranded DNA. SYBR Green I, which is a double-stranded DNA-binding dye, was used to quantify formation of double-stranded DNA in the reaction. When bound to double-stranded DNA, SYBR Green I fluorescence increases by up to 100-fold.
The assay was performed in the 384-well plate format. Upon addition of compounds, changes in double-stranded DNA synthesis activity can be monitored by following effects on fluorescent intensity.
The reactions also contained the accessory POLγB subunit, and the human mitochondrial single-stranded DNA binding protein (mtSSB).
The DNA template mixture used in the assay contained 0.5 nM primed M13 mp18 ssDNA, 400 nM mtSSB, 0.1 mM Tris-HCl (pH 8.0), 0.1 mM dNTP, 10 mM MgCl2, 0.1 mg/mL BSA, 1 mM TCEP solution, and 0.02% Triton X-100. The DNA template mixture for the wild type protein contained either 100 μM dNTP, 1 μM dNTP, or 0.1 μM dNTP, designated in Table 2 as 100 μM, 1 μM, and 0.1 μM, respectfully.
Microplates with compounds (0.1 μL in each well) to be tested in the assay were prepared from 10 mM compound stocks in 100% DMSO, and equal amounts of DMSO without any compound were added to positive and negative control wells.
The protein mixture was dispensed (5 μL into each well) into compound plates and incubated at 37° C. for 15 minutes. After incubation, 5 μL of the DNA template mixture was dispensed into each well. The plates were then incubated at 37° C. for 2 hours.
During incubation, a combined stop buffer and detection reagent solution was prepared. The buffer contained 25 mM EDTA (pH 8.0), 0.02% Triton X-100, and SYBR Green I [Invitrogen] diluted 10,000× (for fluorescent readout). EDTA will stop the enzymatic reaction by chelating magnesium ions.

Row | SMILES | AC50 [µM]
1 | Cc1cc(S(=O)(=O)Nc2cccc(-c3ncc(C4CC4)s3)c2)c(C)cc1Cl [Example 76, 4-chloro-N-(3-(5-cyclopropylthiazol-2-yl)phenyl)-2,5-dimethylbenzenesulfonamide] | 6
2 | Cc1cc(S(=O)(=O)Nc2csc(-c3ccccc3)n2)c(C)cc1Cl [Example 81, 4-chloro-2,5-dimethyl-N-(2-phenylthiazol-4-yl)benzenesulfonamide] | 0.6
3 | Cc1cc(S(=O)(=O)Nc2cccc(-c3ncc(CN(C)C)s3)c2)c(C)cc1Cl [Example 87, 4-chloro-N-(3-(5-((dimethylamino)methyl)thiazol-2-yl)phenyl)-2,5-dimethylbenzenesulfonamide] | 6

Further lines, results first:

Row | AC50 [µM] | SMILES
4 | 30 | Cc1cc(S(=O)(=O)Nc2ccc3ccn(C)c3c2)c(C)cc1Cl [Example 72, 4-chloro-2,5-dimethyl-N-(1-methyl-1H-indol-6-yl)benzenesulfonamide]
5 | 1 | Cc1nc2ccc(NS(=O)(=O)c3cc(C)c(Cl)cc3C)cc2s1 [Example 73, 4-chloro-2,5-dimethyl-N-(2-methylbenzo[d]thiazol-6-yl)benzenesulfonamide]
6 | > 100 | Cc1csc(-c2ccccc2NS(=O)(=O)c2cc(C)c(Cl)cc2C)n1 [Example 80, 4-chloro-2,5-dimethyl-N-(2-(4-methylthiazol-2-yl)phenyl)benzenesulfonamide]
7 | 4 | Cc1cc(S(=O)(=O)Nc2cccc(-c3ncc(CO)s3)c2)c(C)cc1Cl [Example 89, 4-chloro-N-(3-(5-(hydroxymethyl)thiazol-2-yl)phenyl)-2,5-dimethylbenzenesulfonamide]
